Converted amounts (≈) assume the structure as drawn. Like-named read-outs stand apart in the source and are kept apart here.
How the values were obtained:
[1] = biological target: T1, Escherichia coli LpxC enzyme (Escherichia coli, UniProt P0A725); experiment: Inhibitory activity on Escherichia coli LpxC enzyme (fluorescamine method); type: biochemical
T1 construct: made in house; host or cells: Escherichia coli
T1 sequence (P0A725 1-305): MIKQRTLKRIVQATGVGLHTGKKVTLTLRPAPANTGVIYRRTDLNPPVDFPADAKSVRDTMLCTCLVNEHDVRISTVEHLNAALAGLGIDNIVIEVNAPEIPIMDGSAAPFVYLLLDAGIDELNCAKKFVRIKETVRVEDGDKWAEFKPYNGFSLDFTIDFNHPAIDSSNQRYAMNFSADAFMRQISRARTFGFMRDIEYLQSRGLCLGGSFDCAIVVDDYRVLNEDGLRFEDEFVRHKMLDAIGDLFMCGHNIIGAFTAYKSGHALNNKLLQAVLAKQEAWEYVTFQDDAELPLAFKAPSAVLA
Protocol: To assay the activity of Escherichia coli LpxC enzyme, LpxC was reacted with its substrate, UDP-3-O-(R-3-hydroxymyristoyl)-N-acetylglucosamine, and the amount of the reaction product was quantified by the amino groups present in the product
The reaction was terminated by the addition of 1.0 mg/mL-fluorescamine dissolved in a solvent obtained by mixing an equal amount of acetonitrile and dimethylformamide with the reaction mixture, and then, a 0.2 mol/L-sodium phosphate buffer solution (pH 8.0) was added thereto, and the amount of the reaction product was detected at an excitation wavelength/fluorescence wavelength=390 nm/495 nm. An inhibition curve was obtained by performing the aforementioned reaction in the presence of various concentrations of test compounds.

[2] = test system: Escherichia coli strain ATCC25922; experiment: Antimicrobial activity, MIC by broth microdilution; type: cell-based; settings: ATCC25922, 18 h, read-out: MIC Escherichia coli ATCC25922
How it was run: (§1)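 CLSI-based broth microdilution in cation-adjusted Mueller-Hinton broth, inoculum about 5×10^5 CFU/mL from overnight heart infusion agar culture. Incubation 35° C. about 18 h; MIC is the lowest concentration with no visible growth.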

[3] = test system: Klebsiella pneumoniae strain ATCC13883; experiment: Antimicrobial activity, MIC by broth microdilution; type: cell-based; settings: read-out: MIC Klebsiella pneumoniae ATCC13883
How it was run: as §1

[4] = test system: Pseudomonas aeruginosa strain ATCC27853; experiment: Antimicrobial activity, MIC by broth microdilution; type: cell-based; settings: ATCC27853, 18 h, read-out: MIC Pseudomonas aeruginosa ATCC27853
How it was run: as §1

[5] = fluorescamine detection, 3.1 nmol/L enzyme, 20 μmol/L substrate, pH 6.5, 120 min, read-out: IC50 (inhibitory activity on Escherichia coli LpxC enzyme, Fluoresamine method)
[6] = cation-adjusted Mueller-Hinton broth, about 5×10^5 CFU/mL, 35° C., about 18 hours
[7] = ATCC13883, cation-adjusted Mueller-Hinton broth, about 5×10^5 CFU/mL, 35° C., about 18 hours

SMILES	IC50 [1, 5] [µM]	MIC [2, 6] [µg/mL]	MIC [3, 7] [µg/mL]	MIC [4, 6] [µg/mL]	IC50 [1] [µM]	MIC [2] [µg/mL]	MIC ([3]; ATCC13883, 18 h) [µg/mL]	MIC [4] [µg/mL]
COCC(O)CN1C[C@@H]2[C@@H](C#Cc3ccc(-c4cc(Cn5ccnc5[C@H](C)O)no4)cc3)[C@@H]2C1 (stereo partly drawn) [Compound 57, 1-[(1R,5S,6s)-6-({4-[3-((2-[(1S)-1-hydroxyethyl]-1H-imidazol-1-yl}methyl)-1,2-oxazol-5-yl]phenyl}ethynyl)-3-azabicyclo[3.1.0]hexan-3-yl]-3-methoxypropan-2-ol]	0.071	0.5 (≈ 1.08 µM)	0.5 (≈ 1.08 µM)	8 (≈ 17.3 µM)	–	–	–	–
C[C@H](O)c1nccn1Cc1cc(-c2ccc(C#C[C@@H]3[C@H]4CN(C5COC5)C[C@@H]34)cc2)on1 [Compound 59, (1S)-1-(1-{[5-(4-{[(1R,5S,6s)-3-(Oxetan-3-yl)-3-azabicyclo[3.1.0]hexan-6-yl]ethynyl}phenyl)-1,2-oxazol-3-yl]methyl}-1H-imidazol-2-yl)ethan-1-ol]	–	0.5 (≈ 1.16 µM)	0.5 (≈ 1.16 µM)	> 16	0.0355	–	–	–
CNCCC(=O)N1C[C@@H]2[C@@H](C#Cc3ccc(-c4cc(Cn5ccnc5[C@H](C)O)no4)cc3)[C@@H]2C1 [Compound 63, 1-[(1R,5S,6s)-6-({4-[3-({2-[(1S)-1-hydroxyethyl]-1H-imidazol-1-yl}methyl)-1,2-oxazol-5-yl]phenyl}ethynyl)-3-azabicyclo[3.1.0]hexan-3-yl]-3-(methylamino)propan-1-one]	0.105	8 (≈ 17.4 µM)	16 (≈ 34.8 µM)	8 (≈ 17.4 µM)	–	–	–	–
COCCC#Cc1ccc(-c2cc(Cn3ccnc3[C@H](C)O)no2)cc1 [Compound 65, (1S)-1-[l-({5-[4-(4-methoxybut-1-yn-1-yl)phenyl]-1,2-oxazol-3-yl)methyl)-1H-imidazol-2-yl]ethan-1-ol]	0.0391	0.5 (≈ 1.42 µM)	1 (≈ 2.85 µM)	> 128	–	–	–	–
C[C@H](O)c1nccn1Cc1cc(-c2ccc(C#CC3CN(C(=O)OC(C)(C)C)C3)cc2)on1 [Compound 68, tert-butyl 3-({4-[3-({2-[(1S)-1-hydroxyethyl]-1H-imidazol-1-yl}methyl)-1,2-oxazol-5-yl]phenyl}ethynyl)azetidine-1-carboxylate]	0.0136	2 (≈ 4.46 µM)	4 (≈ 8.92 µM)	32 (≈ 71.3 µM)	–	–	–	–
CC(=O)N1CC(C#Cc2ccc(-c3cc(Cn4ccnc4[C@H](C)O)no3)cc2)C1 [Compound 69, 1-[3-({4-[3-({2-[(1S)-1-hydroxyethyl]-1H-imidazol-1-yl}methyl)-1,2-oxazol-5-yl]phenyl}ethynyl)azetidin-1-yl]ethan-1-one]	0.0542	4 (≈ 10.2 µM)	8 (≈ 20.5 µM)	64 (≈ 164 µM)	–	–	–	–
C[C@H](O)c1nccn1Cc1cc(-c2ccc(C#C[C@@H]3[C@H]4CN(C(N)=O)C[C@@H]34)cc2)on1 [Compound 71, (1R,5S,6s)-6-({4-[3-({2-[(1S)-1-Hydroxyethyl]-1H-imidazol-1-yl}methyl)-1,2-oxazol-5-yl]phenyl}ethynyl)-3-azabicyclo[3.1.0]hexane-3-carboxamide]	0.029	1 (≈ 2.4 µM)	2 (≈ 4.79 µM)	> 16	–	–	–	–
C[C@H](O)c1nccn1Cc1cc(-c2ccc(C#C[C@@H]3[C@H]4CN(S(C)(=O)=O)C[C@@H]34)cc2)on1 [Compound 72, (1S)-1-(1-{[5-(4-{[(1R,5S,6s)-3-(Methanesulfonyl)-3-azabicyclo[3.1.0]hexan-6-yl]ethynyl}phenyl)-1,2-oxazol-3-yl]methyl}-1H-imidazol-2-yl)ethan-1-ol]	0.112	0.5 (≈ 1.1 µM)	1 (≈ 2.21 µM)	> 16	–	–	–	–
C[C@H](O)c1nccn1Cc1cc(-c2ccc(C#C[C@@H]3[C@H]4CN(C=O)C[C@@H]34)cc2)on1 [Compound 73, (1R,5S,6s)-6-({4-[3-({2-[(1S)-1-Hydroxyethyl]-1H-imidazol-1-yl}methyl)-1,2-oxazol-5-yl]phenyl}ethynyl)-3-azabicyclo[3.1.0]hexane-3-carbaldehyde]	0.0385	1 (≈ 2.48 µM)	2 (≈ 4.97 µM)	64 (≈ 159 µM)	–	–	–	–
COCC(=O)N1C[C@@H]2[C@@H](C#Cc3ccc(-c4cc(Cn5ccnc5[C@H](C)O)no4)cc3)[C@@H]2C1 [Compound 76, 1-[(1R,5S,6s)-6-({4-[3-({2-[(1S)-1-Hydroxyethyl]-1H-imidazol-1-yl}methyl)-1,2-oxazol-5-yl]phenyl}ethynyl)-3-azabicyclo[3.1.0]hexan-3-yl]-2-methoxyethan-1-one]	0.038	1 (≈ 2.24 µM)	2 (≈ 4.48 µM)	32 (≈ 71.7 µM)	–	–	–	–
C[C@H](O)C(=O)N1C[C@@H]2[C@@H](C#Cc3ccc(-c4cc(Cn5ccnc5[C@H](C)O)no4)cc3)[C@@H]2C1 [Compound 77, (2S)-2-hydroxy-1-[(1R,5S,6R)-6-({4-[3-({2-[(1S)-1-hydroxyethyl]-1H-imidazol-1-yl}methyl)-1,2-oxazol-5-yl]phenyl}ethynyl)-3-azabicyclo[3.1.0]hexan-3-yl]propan-1-one]	0.0674	2 (≈ 4.48 µM)	2 (≈ 4.48 µM)	32 (≈ 71.7 µM)	–	–	–	–
COC(=O)N1C[C@@H]2[C@@H](C#Cc3ccc(-c4cc(Cn5ccnc5[C@H](C)O)no4)cc3)[C@@H]2C1 [Compound 78, Methyl (1R,5S,6s)-6-({4-[3-({2-[(1S)-1-hydroxyethyl]-1H-imidazol-1-yl}methyl)-1,2-oxazol-5-yl]phenyl}ethynyl)-3-azabicyclo[3.1.0]hexane-3-carboxylate]	–	–	–	–	0.0138	0.5 (≈ 1.16 µM)	0.5 (≈ 1.16 µM)	32 (≈ 74 µM)
C[C@H](O)c1nccn1Cc1cc(-c2ccc(C#C[C@@H]3[C@H]4CN(C(=O)C(O)CO)C[C@@H]34)cc2)on1 (stereo partly drawn) [Compound 79, 2,3-dihydroxy-1-[(1R,5S,6s)-6-({4-[3-({2-[(1S)-1-hydroxyethyl]-1H-imidazol-1-yl}methyl)-1,2-oxazol-5-yl]phenyl}ethynyl)-3-azabicyclo[3.1.0]hexan-3-yl]propan-1-one]	0.0927	2 (≈ 4.32 µM)	4 (≈ 8.65 µM)	32 (≈ 69.2 µM)	–	–	–	–
C[C@H](O)c1nccn1Cc1cc(-c2ccc(C#C[C@@H]3[C@H]4CN(S(N)(=O)=O)C[C@@H]34)cc2)on1.Cl [Compound 81, (1R,5S,6s)-6-((4-[3-({2-[(1S)-1-Hydroxyethyl]-1H-imidazol-1-yl}methyl)-1,2-oxazol-5-yl]phenyl}ethynyl)-3-azabicyclo[3.1.0]hexane-3-sulfonamide hydrochloride]	0.0696	0.5	1	> 4	–	–	–	–
C[C@H](O)c1nccn1[C@H](CN)c1cc(-c2ccc(C#CC3CC3)cc2)no1 [Compound 82, (1S)-1-{1-[(1R)-2-Amino-1-{3-[4-(cyclopropylethynyl)phenyl]-1,2-oxazol-5-yl}ethyl]-1H-imidazol-2-yl}ethan-1-ol]	0.082	0.12 (≈ 0.331 µM)	0.25 (≈ 0.69 µM)	16 (≈ 44.1 µM)	–	–	–	–
C[C@H](O)c1nccn1Cc1cc(-c2ccc(C#C[C@@H]3[C@H]4CNC[C@@H]34)cc2)no1 [Compound 83, (1S)-1-(1-{[3-(4-{[(1R,5S,6s)-3-azabicyclo[3.1.0]hexan-6-yl]ethynyl}phenyl)-1,2-oxazol-5-yl]methyl}-1H-imidazol-2-yl)ethan-1-ol]	0.136	8 (≈ 21.4 µM)	8 (≈ 21.4 µM)	8 (≈ 21.4 µM)	–	–	–	–
COCCN1C[C@@H]2[C@@H](C#Cc3ccc(-c4cc(Cn5ccnc5[C@H](C)O)on4)cc3)[C@@H]2C1 [Compound 84, (1S)-1-(1-{[3-(4-{[(1R,5S,6s)-3-(2-methoxyethyl)-3-azabicyclo[3.1.0]hexan-6-yl]ethynyl}phenyl)-1,2-oxazol-5-yl]methyl}-1H-imidazol-2-yl)ethan-1-ol]	0.102	0.5 (≈ 1.16 µM)	0.5 (≈ 1.16 µM)	16 (≈ 37 µM)	–	–	–	–
COCC(O)CN1C[C@@H]2[C@@H](C#Cc3ccc(-c4cc(Cn5ccnc5[C@H](C)O)on4)cc3)[C@@H]2C1 (stereo partly drawn) [Compound 85, 1-[(1R,5S,6s)-6-({4-[5-({2-[(1S)-1-hydroxyethyl]-1H-imidazol-1-yl}methyl)-1,2-oxazol-3-yl]phenyl}ethynyl)-3-azabicyclo[3.1.0]hexan-3-yl]-3-methoxypropan-2-ol]	0.0968	0.5 (≈ 1.08 µM)	0.5 (≈ 1.08 µM)	8 (≈ 17.3 µM)	–	–	–	–
